Reference: US6267945A, “Farnesol-related calcium channel blockers” (NeuroMed Technologies, Inc., priority 1998, dated 2001)
Where two headings read alike, the source gives them in different places. Blank lines part the entries; values can stand above or below the molecule they belong to.

What was measured:
[1] = biological target: T1, N-type calcium channel (α1B + α2 + β1b) (Rattus norvegicus, UniProt Q02294); assay: Inactivation of N-type calcium channels (steady state inactivation, shift in V0.5), whole cell patch clamp; format: cell-based
T1 construct: expressed in transfected cells; host or cells: HEK293 cells stably expressing, or HEK TSA 201 cells transiently transfected with, α1B + α2 + β1b
Source text: (§1) There are two distinguishable types of calcium channel inhibition. […] A second type of block is referred to herein as "inactivation inhibition." When maintained at less negative resting potentials, such as the physiologically important potential of -70 mV, a certain percentage of the receptor channels may undergo conformational change, rendering them incapable of being activated--i.e., opened--by the abrupt depolarization. Thus, the peak current due to calcium ion flow will be diminished not because the open channel is blocked, but because some of the channels are unavailable for opening (inactivated). "Inactivation" type inhibitors increase the percentage of receptors that are inactivated.
(§2) As described above, a more definitive assay can be used to distinguish inhibitors of calcium flow which operate as open channel blockers, as opposed to those that operate by promoting inactivation of the channel. The methods to distinguish these types of inhibition are more particularly described in the examples below. In general, open-channel blockers are assessed by measuring the level of peak current when deploarization is imposed on a background resting potential of about -100 mV in the presence and absence of the candidate compound. Successful open-channel blockers will reduce the peak current observed and accelerate the decay of this current. Compounds that are inactivated channel blockers are determined by their ability to shift the voltage dependence of inactivation towards more negative potentials. This is also reflected in their ability to reduce peak currents at more depolarized holding potentials(e.g., -70 mV).
(§3) Human embryonic kidney TSA 201 cells were grown in standard DMEM medium, supplemented with 10% fetal bovine serum and 0.4 mg/ml neomycin. The cells were grown to 80% confluency, split with trypsin EDTA and plated on glass coverslips at 10% confluency 12 hours prior to transfection. Immediately prior to transfection, the medium was replaced and the cells were transiently transfected with cDNAs encoding calcium channel α1B, β1b and α2 subunits (at a 1:1:1 molar ratio) using a standard calcium phosphate protocol. After 12 hours, the medium was replaced with fresh DMEM and the cells were allowed to recover for 12 hours. Subsequently the cells were incubated at 28° C. in 5% CO2 for 1-2 days prior to recording. Human embryonic kidney cells stably expressing N-type α1B +α2 +β1b were maintained and plated for electrophysiological recordings as described by Zamponi, G. W. et al., Nature (1997) 385:442-446.
(§4) Immediately prior to recording, individual cover slips were transferred to a 3 cm culture dish containing an external recording solution. The external recording solution was 20 mM BaCl2, 1 mM MgCl2, 10 mM HEPES, 40 mM TEACl, 10 mM glucose, 65 mM CsCl (pH 7.2) or 5 mM BaCl2, 1 mM MgCl2, 10 mM HEPES, 40 mM TEACl, 10 mM glucose, 87.5 mM CsCl (pH 7.2). […] The internal pipette solution is 105 mM CsCl, 25 mM TEACl, 1 mM CaCl2, 11 mM EGTA, 10 mM HEPES (pH 7.2). Whole cell patch clamp experiments were performed using an Axopatch 200B amplifier (Axon Instruments, Burlingame, Calif.) linked to an IBM compatible personal computer equipped with pCLAMP 6.0 software. Currents were typically elicited from a holding potential of -100 mV to various test potentials. The compounds to be tested were prepared as stock solutions in ethanol and diluted into the recording solution at the appropriate final concentrations, and perfused directly onto the cells using a gravity driven microperfusion system. At the applicable concentrations, ethanol by itself had no effect on calcium channel activity. Data were filtered at 1 kHz and recorded directly on the hard drive of a personal computer. The data were analyzed using ClampFit (Axon Instruments). Curve fitting was carried out in Sigmaplot 4.0 (Jandel Scientific). Steady state inactivation curves were fitted with a Boltzman equation,
Ipeak(normalized) =1/(1+exp((V-Vh)Z/25.6)) […]

[2] = biological target: T1, N-type calcium channel (α1B + α2 + β1b); assay: Open-channel block of N-type calcium channels, whole cell patch clamp, holding potential -100 mV; format: cell-based; details: for inhibition at 10 µM: read-out: Open/Resting Block (determined at 10 μM); for normalized peak height: -100 mV to +20 mV
Source text: as §1, §2, §3
as §4, with “equation, […]” for “equation,”

L-type receptors = details: micromolar range; cited from earlier work
α1E calcium channel [3] = assay: Open-channel block of α1E channels, resting potential -100 mV; format: cell-based; details: 25 μM farnesol
Experimental: as §3
(§5) For some experiments, cells were prepared wherein the α1B unit was replaced by α1A (P/Q type) α1C (type L) or α1E (undefined). α1B represents N-type.
(§6) Immediately prior to recording, individual cover slips were transferred to a 3 cm culture dish containing an external recording solution. […] Data were filtered at 1 kHz and recorded directly on the hard drive of a personal computer. The data were analyzed using ClampFit (Axon Instruments). […]

[4] = system: L-type calcium channel (α1C); assay: Open-channel block of L-type channels, resting potential -100 mV; format: cell-based; details: 25 μM farnesol
Experimental: as §3, §5, §6

α1E calcium channel [5] = assay: Inactivation effect on α1E channels, resting potential -70 mV; format: cell-based; details: 250 nM farnesol
Experimental: as §3, §5, §6

[6] = system: P/Q type calcium channel (α1A); assay: Open-channel block of P/Q-type channels, resting potential -100 mV; format: cell-based; details: 25 μM farnesol
Experimental: as §3, §5, §6

[7] = system: P/Q type calcium channel (α1A); assay: Inactivation effect on P/Q-type channels, resting potential -70 mV; format: cell-based; details: 250 nM farnesol
Experimental: as §3, §5, §6

[8] = system: L-type calcium channel (α1C); assay: Inactivation effect on L-type channels, resting potential -70 mV; format: cell-based; details: 250 nM farnesol
Experimental: as §3, §5, §6

[9] = corrected for control inactivation rate, linear fit

T1 sequence (Q02294 whole entry): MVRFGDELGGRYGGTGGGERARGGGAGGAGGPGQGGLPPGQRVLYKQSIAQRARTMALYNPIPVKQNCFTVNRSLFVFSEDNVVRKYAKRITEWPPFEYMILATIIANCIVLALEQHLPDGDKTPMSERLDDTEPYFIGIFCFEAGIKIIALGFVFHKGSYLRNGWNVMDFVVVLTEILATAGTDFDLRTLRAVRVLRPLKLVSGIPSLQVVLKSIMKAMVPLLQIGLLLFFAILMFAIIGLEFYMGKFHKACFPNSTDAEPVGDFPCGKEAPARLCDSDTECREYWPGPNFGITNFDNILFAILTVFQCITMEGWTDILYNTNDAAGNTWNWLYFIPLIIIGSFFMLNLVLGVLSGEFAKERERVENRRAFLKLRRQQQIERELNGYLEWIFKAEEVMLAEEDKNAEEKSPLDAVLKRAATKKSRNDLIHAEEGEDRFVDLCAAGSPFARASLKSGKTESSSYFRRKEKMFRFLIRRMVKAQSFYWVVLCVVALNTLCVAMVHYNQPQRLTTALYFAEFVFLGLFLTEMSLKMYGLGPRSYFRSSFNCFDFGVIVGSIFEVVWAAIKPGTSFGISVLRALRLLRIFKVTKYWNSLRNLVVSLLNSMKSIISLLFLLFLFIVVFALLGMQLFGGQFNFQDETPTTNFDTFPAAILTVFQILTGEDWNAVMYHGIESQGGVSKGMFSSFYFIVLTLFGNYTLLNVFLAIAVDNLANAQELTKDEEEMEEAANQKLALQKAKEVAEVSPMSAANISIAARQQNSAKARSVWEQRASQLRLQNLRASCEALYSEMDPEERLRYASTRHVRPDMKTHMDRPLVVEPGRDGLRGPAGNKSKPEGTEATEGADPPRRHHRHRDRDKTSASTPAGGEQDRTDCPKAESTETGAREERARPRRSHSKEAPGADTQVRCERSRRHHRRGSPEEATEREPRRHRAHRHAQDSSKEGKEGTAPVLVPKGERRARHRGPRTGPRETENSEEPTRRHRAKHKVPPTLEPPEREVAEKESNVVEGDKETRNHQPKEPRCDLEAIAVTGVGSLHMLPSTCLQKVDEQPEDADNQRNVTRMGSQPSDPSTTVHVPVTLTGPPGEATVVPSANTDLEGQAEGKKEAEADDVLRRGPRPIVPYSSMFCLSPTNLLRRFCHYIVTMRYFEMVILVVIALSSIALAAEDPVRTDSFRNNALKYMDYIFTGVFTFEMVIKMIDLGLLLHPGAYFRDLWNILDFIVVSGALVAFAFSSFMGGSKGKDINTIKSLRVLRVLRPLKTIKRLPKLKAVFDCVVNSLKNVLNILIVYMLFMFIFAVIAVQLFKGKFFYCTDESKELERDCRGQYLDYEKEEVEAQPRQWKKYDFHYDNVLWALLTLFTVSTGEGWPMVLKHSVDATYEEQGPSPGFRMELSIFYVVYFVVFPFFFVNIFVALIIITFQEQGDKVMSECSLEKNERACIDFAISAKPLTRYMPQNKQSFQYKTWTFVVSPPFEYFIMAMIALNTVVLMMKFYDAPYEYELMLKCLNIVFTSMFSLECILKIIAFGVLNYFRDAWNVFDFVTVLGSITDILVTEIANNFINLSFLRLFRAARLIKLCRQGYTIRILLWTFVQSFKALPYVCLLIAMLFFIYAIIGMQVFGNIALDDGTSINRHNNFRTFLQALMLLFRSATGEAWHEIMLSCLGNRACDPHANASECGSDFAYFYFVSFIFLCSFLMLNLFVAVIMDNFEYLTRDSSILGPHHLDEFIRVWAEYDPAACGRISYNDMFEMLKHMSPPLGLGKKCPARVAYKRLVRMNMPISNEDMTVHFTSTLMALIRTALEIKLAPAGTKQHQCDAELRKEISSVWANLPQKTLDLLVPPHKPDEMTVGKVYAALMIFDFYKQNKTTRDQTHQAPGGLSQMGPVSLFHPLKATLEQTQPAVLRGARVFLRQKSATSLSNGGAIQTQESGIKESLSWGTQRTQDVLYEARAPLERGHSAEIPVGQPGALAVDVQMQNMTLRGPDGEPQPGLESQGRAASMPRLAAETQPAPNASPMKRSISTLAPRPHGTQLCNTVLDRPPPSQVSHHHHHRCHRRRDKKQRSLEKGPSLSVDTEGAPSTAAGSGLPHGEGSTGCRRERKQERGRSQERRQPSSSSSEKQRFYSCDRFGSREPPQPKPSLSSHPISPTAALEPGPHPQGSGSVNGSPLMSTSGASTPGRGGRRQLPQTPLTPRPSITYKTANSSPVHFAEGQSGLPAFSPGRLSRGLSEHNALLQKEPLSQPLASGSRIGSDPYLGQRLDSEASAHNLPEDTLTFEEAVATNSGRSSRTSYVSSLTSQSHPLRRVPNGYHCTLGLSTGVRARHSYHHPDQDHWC
T1 sequence (P54290 25-944 partner limits assumed): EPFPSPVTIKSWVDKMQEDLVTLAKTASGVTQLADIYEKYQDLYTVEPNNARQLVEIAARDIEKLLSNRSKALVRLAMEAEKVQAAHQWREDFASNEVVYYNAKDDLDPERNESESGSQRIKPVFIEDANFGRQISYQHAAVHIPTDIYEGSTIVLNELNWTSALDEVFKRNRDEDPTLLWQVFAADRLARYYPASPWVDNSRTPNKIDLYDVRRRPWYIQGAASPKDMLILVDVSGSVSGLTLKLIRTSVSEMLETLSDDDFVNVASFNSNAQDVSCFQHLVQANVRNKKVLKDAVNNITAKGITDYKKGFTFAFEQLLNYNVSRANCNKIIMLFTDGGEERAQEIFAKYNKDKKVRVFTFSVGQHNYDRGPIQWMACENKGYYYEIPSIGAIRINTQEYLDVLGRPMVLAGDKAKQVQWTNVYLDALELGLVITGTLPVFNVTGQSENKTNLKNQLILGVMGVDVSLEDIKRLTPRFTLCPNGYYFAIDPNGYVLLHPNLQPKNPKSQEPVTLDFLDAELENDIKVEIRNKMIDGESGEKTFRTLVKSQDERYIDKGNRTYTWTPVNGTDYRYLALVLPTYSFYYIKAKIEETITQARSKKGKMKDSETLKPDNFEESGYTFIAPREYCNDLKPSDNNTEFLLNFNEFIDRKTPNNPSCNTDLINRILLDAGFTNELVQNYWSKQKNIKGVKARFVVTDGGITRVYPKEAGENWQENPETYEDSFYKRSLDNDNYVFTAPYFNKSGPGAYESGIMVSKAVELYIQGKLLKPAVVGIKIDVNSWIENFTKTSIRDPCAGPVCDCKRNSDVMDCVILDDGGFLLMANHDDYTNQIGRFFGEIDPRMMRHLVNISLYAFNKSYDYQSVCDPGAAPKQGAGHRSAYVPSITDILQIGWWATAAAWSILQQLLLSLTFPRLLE
T1 sequence (P54290 945-1091 partner limits assumed): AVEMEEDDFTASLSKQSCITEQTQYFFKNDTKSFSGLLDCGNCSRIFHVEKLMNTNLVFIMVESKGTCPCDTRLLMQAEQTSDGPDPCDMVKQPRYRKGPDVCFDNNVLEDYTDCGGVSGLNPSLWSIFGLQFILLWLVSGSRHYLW
T1 sequence (P54283 whole entry partner): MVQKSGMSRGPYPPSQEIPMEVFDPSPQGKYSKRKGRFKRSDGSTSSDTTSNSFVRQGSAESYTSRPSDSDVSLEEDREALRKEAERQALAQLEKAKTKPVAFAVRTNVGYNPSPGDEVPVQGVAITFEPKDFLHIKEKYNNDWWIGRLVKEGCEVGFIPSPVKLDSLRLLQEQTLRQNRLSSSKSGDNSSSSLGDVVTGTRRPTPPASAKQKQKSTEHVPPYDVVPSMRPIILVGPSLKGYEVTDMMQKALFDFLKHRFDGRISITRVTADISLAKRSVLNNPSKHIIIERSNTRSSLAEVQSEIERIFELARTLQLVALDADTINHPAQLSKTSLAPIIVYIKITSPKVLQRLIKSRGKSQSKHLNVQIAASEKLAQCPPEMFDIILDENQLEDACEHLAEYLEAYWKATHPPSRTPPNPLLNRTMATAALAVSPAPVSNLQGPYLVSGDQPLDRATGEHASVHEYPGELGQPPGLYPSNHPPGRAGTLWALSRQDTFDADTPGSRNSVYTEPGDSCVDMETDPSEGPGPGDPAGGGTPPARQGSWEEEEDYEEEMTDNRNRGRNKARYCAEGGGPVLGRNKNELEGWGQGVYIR

- Inactivated Block (shift in V0.5) [1]: ~ 10 mV
- nonspecific open-channel blocking activity (summary in words) [2]: relatively lacking
- Open/Resting Block (determined at 10 μM) [2]: < 10%
Structure (SMILES): CC(C)CCCC(C)CCCC(C)CCCC(C)C (stereo not drawn)
- inactivation-type inhibition specific to the N-type receptor (summary in words) [1]: able to promote substantial inactivation-type inhibition

- Inactivated Block (shift in V0.5) [1]: ~ 10 mV
- inhibition at 10 µM [2]: > 80%
Structure (SMILES): CCCCCCCCCCN [decylamine]

Structure (SMILES): CCCCCCCCCCCC [dodecane]
- Inactivated Block (shift in V0.5) [1]: ~ 10 mV
- inactivation-type inhibition specific to the N-type receptor (summary in words) [1]: able to promote substantial inactivation-type inhibition
- nonspecific open-channel blocking activity (summary in words) [2]: relatively lacking
- inhibition at 10 µM [2]: 10 to 20%

Structure (SMILES): CCCCCCCCCCCCN [dodecylamine]
- Inactivated Block (shift in V0.5) [1]: ~ 10 mV
- inhibition at 10 µM [2]: 90 to 100%

Structure (SMILES): CC(C)=CCCC(C)=CCCC(C)=CCO [farnesol]
- calcium-channel blocking, open channel blockage, channel preference (L-type receptors): preference for inhibition of L-type receptors
- Inactivated Block (shift in V0.5) [1]: 10-25 mV
- V0.5 ([1]; 100 nM farnesol): -70 mV
- time course of development of current amplitude diminution ([1]; 100 nM farnesol, resting potential -70 mV): slower than that obtained at a resting potential of -100 mV
- recovery from block ([1]; 100 nM farnesol, resting potential -70 mV, compared with open-channel blockage): much slower
- peak current at -70 mV resting potential normalized to -100 mV ([1]; 250 nM farnesol): substantially diminished
- reversibility of effect ([1]; 250 nM farnesol, holding -70 mV to test +10 mV): does not appear to be completely reversible
- Z slope factor (Boltzman fit) ([1]; 25 μM farnesol): 3.8
- shift in V0.5 ([1]; 25 μM farnesol): about 20 mV
- V0.5 (resting potential that diminishes peak currents to 1/2) ([1]; 25 μM farnesol present, mean values): -70 mV
- Vh (Boltzman fit of steady state inactivation) ([1]; 25 μM farnesol, test potential +20 mV): -68.7 mV
- Vh (Boltzman fit of steady state inactivation) ([1]; Wash, after 25 μM farnesol): -56.5 mV
- Z slope factor (Boltzman fit) ([1]; Wash, after 25 μM farnesol): 4.0
- activity at 25 µM ([1]; read-out: peak current value (normalized to -100 mV resting potential)): 50%
- activity at 25 µM ([1]; read-out: peak value as % of base value (normalized to -100 mV resting potential)): 80%
- open channel blocking effect on current amplitudes (α1E calcium channel [3]): diminished peak heights
- channel type preference of open channel block [4]: preferentially inhibited
- open channel blocking effect on current amplitudes [4]: diminished peak heights
- peak current at -70 mV resting potential normalized to -100 mV (α1E calcium channel [5]): Only the N-type channels show substantially diminished values
- normalized peak height ([2]; 5 μM farnesol): diminished
- time to decay of current to the resting level ([2]; 5 μM or 25 μM farnesol): accelerated time to decay to the resting level
- position of peak amplitude with respect to depolarization voltage (current/voltage relationship) ([2]; 10 μM farnesol): no dependence
- normalized peak height ([2]; 25 μM farnesol): further dramatically diminished
- open channel blocking effect on current amplitudes ([2]; 25 μM farnesol, resting potential -100 mV): diminished peak heights
- peak currents upon removal of farnesol (reversibility) ([2]; after 5 μM and 25 μM farnesol): regenerated
- intercept of inverse time constant for current decay versus farnesol concentration [2, 9]: 7.6
- slope of inverse time constant for current decay versus farnesol concentration [2, 9]: 4.8
- inhibition at 10 µM [2]: 60%
- open channel blocking effect on current amplitudes [6]: diminished peak heights
- peak current at -70 mV resting potential normalized to -100 mV [7]: Only the N-type channels show substantially diminished values
- peak current at -70 mV resting potential normalized to -100 mV [8]: Only the N-type channels show substantially diminished values

- Inactivated Block (shift in V0.5) [1]: ~ 20 mV
- inhibition at 10 µM [2]: 90 to 100%
Structure (SMILES): CC(=O)OCC=C(C)CCC=C(C)CCC=C(C)C [farnesyl acetate]

- Inactivated Block (shift in V0.5) [1]: ~ 20 mV
- nonspecific open-channel blocking activity (summary in words) [2]: relatively lacking
- inhibition at 10 µM [2]: 20 to 30%
Structure (SMILES): CC(C)=CCCC(C)=CCCC(C)=CCBr [farnesyl bromide]
- inactivation-type inhibition specific to the N-type receptor (summary in words) [1]: able to promote substantial inactivation-type inhibition

- Open/Resting Block (determined at 10 μM) [2]: Not active
Structure (SMILES): CC(C)=CCCC(C)=CCCC(C)=CCOP(=O)(O)OP(=O)(O)O [farnesyl pyrophosphate]

- Inactivated Block (shift in V0.5) [1]: ~ 10 mV
- nonspecific open-channel blocking activity (summary in words) [2]: relatively lacking
- Open/Resting Block (determined at 10 μM) [2]: Not active
Structure (SMILES): COC(=O)C=C(C)CCC=C(C)CCC1OC1(C)C (stereo not drawn) [juvenile hormone III]
- inactivation-type inhibition specific to the N-type receptor (summary in words) [1]: able to promote substantial inactivation-type inhibition
